Data as given in US6184365A, “Anthracycline derivatives having 4-amino-2,4,6-trideoxy-2 fluoro-α-L-talopyranosyl group” (priority 1996, dated 2001).
In brackets after ≈: the same amount, converted by molar mass.

What was measured:
[1] = earlier derivatives; cited from earlier work
[2] = earlier derivatives; comparison with daunomycin or adriamycin; cited from earlier work
[3] = tested on: Leukemia L-1210 cells; test: Antitumor activity against leukemia in CDF1 mice inoculated with Leukemia L-1210 cells; assay type: in vivo, mouse; conditions: for Increase (%) in life-span (T/C, %): i.p., once a day for 9 days, as hydrochloride
Experimental: Thus, to evaluate the antitumor effects of the novel compounds of this invention against experimental tumors in animals, CDF1 mice (four mice per group) were intraperitoneally inoculated with cells of Leukemia L-1210 at an amount of 1×10^5 cells/mouse. Since an elapse of 24 hours from the inoculation of the leukemia cells, a test compound of this invention was administered intraperitoneally to the mice under test once a day for consecutive 9 days, with the test compound being given as its hydrochloride in the form of a solution in a physiological saline. […] In the meanwhile, mice of the control group (the untreated group) were administered only with physiological saline after the inoculation of the L-1210 cells. During the observation period, the number of the surviving mice was counted for both the treated group and the control group, and the mean survival days of mice of both the treated group and the control group were calculated. Then, the percentages (%) of the increase in the life-span of the treated mice was estimated, as T/C (%), in terms of the mean survival day (C) of the untreated mice of the control group and the mean survival day (T) of the treated mice of the treated group. For comparison purposes, similar tests were effected using daunomycin (as hydrochloride) and adriamycin (as hydrochloride). The mean survival day of mice of the control group (the untreated group) was 8 to 9 days, and the mean survival day of mice of the comparative groups having received the administration of daunomycin or adriamycin usually varied dependently on the dosage of the compound tested.
Incidentally, in respect of the fractional numbers parenthesized below the numerical values of increase (%) in the life-span, the denominator of the fraction denotes the number of mice tested in one test group but the numerator of the fraction denotes the number of mice which survived for 60 days or longer.

[4] = tested on: human chronic myelogenous leukemia (K562); test: Growth inhibition of human chronic myelogenous leukemia (K562); assay type: cell-based; conditions: Homo sapiens, K562, 72 h
Experimental: (§1) Adriamycin was used as a comparative compound and was tested in the same manner as above.
(§2) The different kinds of human cancer cells tested were six kinds indicated below, including human chronic myelogenous leukemia (K562), human vaginal melanoma (HMV-1), human nasopharyngeal carcinoma (KB), human gastric adenocarcinoma (MKN-1), human lung non-small cell carcinoma (PC-14) and human bladder carcinoma (T24).

[5] = tested on: human vaginal melanoma (HMV-1); test: Growth inhibition of human vaginal melanoma (HMV-1); assay type: cell-based; conditions: 72 h
Experimental: as §1, §2

[6] = tested on: human nasopharyngeal carcinoma (KB); test: Growth inhibition of human nasopharyngeal carcinoma (KB); assay type: cell-based; conditions: 72 h
Experimental: as §1, §2

[7] = tested on: human gastric adenocarcinoma (MKN-1); test: Growth inhibition of human gastric adenocarcinoma (MKN-1); assay type: cell-based; conditions: Homo sapiens, MKN-1, 72 h
Experimental: as §1, §2

[8] = tested on: human lung non-small cell carcinoma (PC-14); test: Growth inhibition of human lung non-small cell carcinoma (PC-14); assay type: cell-based; conditions: Homo sapiens, PC-14, 72 h
Experimental: as §1, §2

[9] = tested on: human bladder carcinoma (T24); test: Growth inhibition of human bladder carcinoma (T24); assay type: cell-based; conditions: Homo sapiens, 72 h
Experimental: as §1, §2

[10] = tested on: mouse leukemia P388 cells; test: Growth inhibition of mouse leukemia P388 cells; assay type: cell-based; conditions: P388, 72 h
Experimental: as §1

[11] = tested on: adriamycin-resistant P388 cells (P388/ADR); test: Growth inhibition of adriamycin-resistant P388 cells (P388/ADR); assay type: cell-based, mouse; conditions: Mus musculus, 72 h
Experimental: as §1

[12] = clinical treatment of cancer-bearing patients; cited from earlier work
[13] = tested on: mouse Leukemia L-1210 cell; conditions: in vivo, cited from earlier work
[14] = tested on: various human cancer cells; conditions: in vitro; cited from earlier work

SMILES: COc1cccc2c1C(=O)c1c(O)c3c(c(O)c1C2=O)C[C@@](O)(C(=O)CO)C[C@@H]3O[C@@H]1O[C@@H](C)[C@@H](O)[C@@H](N)[C@H]1F [7-O-(3-amino-2,3,6-trideoxy-2-fluoro-α-L-talopyranosyl)adriamycinone]
- solubility in water [1]: soluble in water
- antitumor activity [2]: antitumor activity a little higher than that of the latter

SMILES: COc1cccc2c1C(=O)c1c(O)c3c(c(O)c1C2=O)C[C@@](O)(C(=O)CO)C[C@@H]3O[C@H]1C[C@H](N)[C@H](O)[C@H](C)O1 [Adriamycin, reference compound]
- Increase (%) in life-span (T/C, %) ([3]; 0.15 mg/kg/day): 140%
- Increase (%) in life-span (T/C, %) ([3]; 0.3 mg/kg/day): 132%
- Increase (%) in life-span (T/C, %) ([3]; 0.6 mg/kg/day): 208%
- Increase (%) in life-span (T/C, %) ([3]; 1.25 mg/kg/day): 330%
- Increase (%) in life-span (T/C, %) ([3]; 2.5 mg/kg/day): 273%
- Increase (%) in life-span (T/C, %) ([3]; 5 mg/kg/day): 177%
- development of toxicity in words ([3]; 2.5 to 5 mg/kg/day): accompanied by the development of toxicity
- percentages of increase in the life-span (T/C, %) ([3]; 2.5 to 5 mg/kg/day): about 330%
- IC50 [4]: 0.39 µg/mL (≈ 0.718 µM)
- IC50 [5]: 0.14 µg/mL (≈ 0.258 µM)
- IC50 [6]: 0.05 µg/mL (≈ 0.092 µM)
- IC50 [7]: 0.25 µg/mL (≈ 0.46 µM)
- IC50 [8]: 0.62 µg/mL (≈ 1.14 µM)
- IC50 [9]: 0.16 µg/mL (≈ 0.294 µM)
- IC50 [10]: 0.032 µg/mL (≈ 0.0589 µM)
- IC50 [11]: 2.5 µg/mL (≈ 4.6 µM)
- side-effects [12]: serious side-effects such as leukocytopenia, alopecia, myocardiopathy and others

SMILES: COc1cccc2c1C(=O)c1c(O)c3c(c(O)c1C2=O)C[C@@](O)(C(=O)CO)C[C@@H]3O[C@@H]1O[C@@H](C)[C@H](N)[C@@H](O)[C@H]1F [compound of the formula (D-b), 7-O-(4-amino-2,4,6-trideoxy-2-fluoro-α-L-mannopyranosyl)adriamycinone]
- solubility in water [1]: soluble in water
- antitumor activity against mouse Leukemia L-1210 cell over adriamycin ([13]; low dosages): remarkably improved antitumor activity
- antitumor activity against experimental tumors in animals [13]: remarkably high antitumor activity
- anticancer activity against various human cancer cells compared with adriamycin [14]: substantially as high as those of adriamycin

SMILES: COc1cccc2c1C(=O)c1c(O)c3c(c(O)c1C2=O)C[C@@](O)(C(=O)CO)C[C@@H]3O[C@@H]1O[C@@H](C)[C@@H](O)[C@@H](O)[C@H]1F [7-O-(2,6-Dideoxy-2-fluoro-α-L-talopyranosyl)adriamycinone]
- solubility in water [1]: barely soluble in water
- antitumor activity [2]: remarkable antitumor activity
